{"source": "patent US20160184322A1", "about": "(priority 2013, published 2016)", "key": {"[1]": {"tested_on": "rats that have suffered a concussion", "test": "Morris Water Maze latency to platform in mTBI (concussion) model (FIG. 8)", "type": "in vivo, rat", "conditions": "vs vehicle-injured rats"}, "[2]": {"tested_on": "severe TBI patients", "conditions": "six months; cited from earlier work"}, "[3]": {"conditions": "males; cited from earlier work"}, "[4]": {"tested_on": "SH-SY5Y cells", "test": "Lactate dehydrogenase release after oxygen and glucose deprivation (OGD)", "type": "cell-based", "conditions": "for most effective concentrations to attenuate OGD-induced LDH release: both the 0 and 24 hour post-OGD time points"}, "[5]": {"tested_on": "rodents following injury", "conditions": "cited from earlier work; for most beneficial concentration for reducing edema, inflammation, oxidative stress and cell death within the penumbral region: IP, moderate to severe TBI model, 72 hours following injury"}, "[6]": {"tested_on": "moderate to severe TBI patients", "conditions": "cited from earlier work"}, "[7]": {"tested_on": "SH-SY5Y cells", "test": "LDH release after t-BOOH-induced oxidative stress", "type": "cell-based", "conditions": "25 μM t-BOOH 6 hours, 24 hours pre-treatment 1-80 μM; for LDH release following exposure to oxidative stress, group differences: ANOVA p=0.214"}, "[8]": {"tested_on": "glutathione reductase", "test": "Glutathione reductase assay in rat model of mTBI (three repeated impacts)", "type": "in vivo, Sprague Dawley rats", "conditions": "16 mg/kg intraperitoneal 15 minutes after last impact; tissue 24 hours after drug; one-way ANOVA p=0.675", "description": "Glutathione reductase assay was used to measure the antioxidant capacity of PRV-001. Glutathione reductase (GR) is an enzyme which catalyzes the reduction of glutathione (GSSR) to reduced glutathione (GSH). GSH is an important intracellular antioxidant that reacts with oxygen free radicals which are harmful to the cell. High GSH to GSSR ratio is important to cellular survival and GR catalyzes the reduction, therefore becoming an important indicator of antioxidant capacity.\nSprague Dawley rats were obtained from Charles River Laboratories and subjected to three repeated impacts spaced 20 minutes apart. Prior to surgery, animals were anesthetized via inhalation with an initial induction with 5% isofluorane with oxygen at a rate of […] a Matrix 3000 Isofluorane Vaporizer (Midmark, Versailles, Ohio). […] The animal's scalp was shaved and cleaned with a 70% isopropanol solution and 10% betadine solution (Med-Vet International, Mettawa, Ill.). During the surgery, anesthesia was maintained at 2.5% isofluorane with oxygen at a rate of 500-1000 mL/min. The animal's head was then secured in a stereotaxic apparatus (David Kopf Instruments, Tujanga, Calif.) and a medial incision was performed and the scalp pulled back with bulldogs clips over the right frontal and parietal bone. […]"}, "[9]": {"tested_on": "rats suffering from TBI", "conditions": "cited from earlier work; for brain water content (measure of edema): 72 hours post-injury, ent-Prog 16 mg/kg"}, "[10]": {"tested_on": "glutathione reductase", "conditions": "72 hours post-injury, compared to all other groups, p<0.01; cited from earlier work"}, "[11]": {"target": "T1, classical progesterone receptor (PR) (Homo sapiens, UniProt P06401)", "T1 sequence (P06401 1-933)": "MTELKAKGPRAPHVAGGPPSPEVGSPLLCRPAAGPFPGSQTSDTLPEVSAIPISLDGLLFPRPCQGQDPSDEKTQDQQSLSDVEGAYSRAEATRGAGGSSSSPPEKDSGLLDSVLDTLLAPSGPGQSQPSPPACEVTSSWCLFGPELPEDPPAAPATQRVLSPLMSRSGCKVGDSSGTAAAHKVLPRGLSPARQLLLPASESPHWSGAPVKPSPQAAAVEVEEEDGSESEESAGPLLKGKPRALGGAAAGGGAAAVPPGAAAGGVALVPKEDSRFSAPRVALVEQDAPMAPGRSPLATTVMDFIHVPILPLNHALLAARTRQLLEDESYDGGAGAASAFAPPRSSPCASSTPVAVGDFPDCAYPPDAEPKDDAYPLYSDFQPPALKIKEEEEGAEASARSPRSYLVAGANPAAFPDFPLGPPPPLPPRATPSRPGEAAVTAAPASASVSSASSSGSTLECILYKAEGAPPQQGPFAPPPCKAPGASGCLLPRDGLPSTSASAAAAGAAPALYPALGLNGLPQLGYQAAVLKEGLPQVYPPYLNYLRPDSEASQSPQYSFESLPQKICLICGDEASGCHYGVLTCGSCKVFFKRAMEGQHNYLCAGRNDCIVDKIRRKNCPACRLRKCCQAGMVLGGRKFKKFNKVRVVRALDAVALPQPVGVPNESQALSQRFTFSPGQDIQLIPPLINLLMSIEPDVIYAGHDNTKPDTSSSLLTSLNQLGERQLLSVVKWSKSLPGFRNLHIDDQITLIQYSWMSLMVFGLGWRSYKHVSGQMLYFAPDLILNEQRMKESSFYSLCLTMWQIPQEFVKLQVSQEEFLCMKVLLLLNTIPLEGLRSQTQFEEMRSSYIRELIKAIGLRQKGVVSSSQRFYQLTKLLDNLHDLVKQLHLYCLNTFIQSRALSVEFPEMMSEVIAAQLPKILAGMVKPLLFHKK", "conditions": "cited from earlier work"}}, "note": "Where two headings read alike, the source gives them in different places.", "data": [{"smiles": "CC(=O)[C@H]1CC[C@H]2[C@@H]3CCC4=CC(=O)CC[C@]4(C)[C@H]3CC[C@]12C", "note": "[Prog, progesterone]", "values": [{"measurement": "latency to platform (Morris Water Maze)", "setting": "[1]; post-acutely (15 minutes post)", "result": "decreases latency to platform"}, {"measurement": "latency to platform (Morris Water Maze)", "setting": "[1]; prophylactically (15 minutes prior)", "result": "decreases latency to platform"}, {"measurement": "neurological outcomes long-term", "setting": "[2]", "result": "better neurological outcomes"}, {"measurement": "conversion of testosterone to dihydrotestosterone", "setting": "[3]", "result": "inhibits"}, {"measurement": "size of reproductive organs", "setting": "[3]", "result": "reduces"}, {"measurement": "spermatogenesis", "setting": "[3]", "result": "suppresses"}, {"measurement": "LDH release compared to other treated groups", "setting": "[4]", "result": "significant reduction"}, {"measurement": "promoting cellular survival following oxygen and glucose deprivation, PRV-001 compared with progesterone", "setting": "[4]", "result": "equally effective"}, {"measurement": "LDH release compared to other treated groups", "setting": "[4]; 0 h post-OGD, 1 μM progesterone vs 80 uM progesterone", "result": "significant reduction"}, {"measurement": "LDH release compared to other treated groups", "setting": "[4]; 0 h post-OGD, 10 μM progesterone vs 80 μM progesterone", "result": "significant reduction"}, {"measurement": "LDH release compared to control cells that did not undergo OGD", "setting": "[4]; 0 h post-OGD, 20 μM and 80 μM progesterone", "result": "significantly higher"}, {"measurement": "LDH release compared to other treated groups", "setting": "[4]; 0 h post-OGD, 20 μM progesterone vs 80 μM progesterone", "result": "significant reduction"}, {"measurement": "LDH release compared to control cells not exposed to OGD", "setting": "[4]; 0 h post-OGD, 1, 5, 10 and 40 μM progesterone", "result": "not significantly different"}, {"measurement": "LDH release compared to untreated cells exposed to OGD", "setting": "[4]; 0 h post-OGD, all progesterone concentrations except 80 μM", "result": "significant reduction"}, {"measurement": "LDH release compared to control cells not exposed to OGD", "setting": "[4]; 24 hours post-OGD, 1 μM and 40 μM progesterone", "result": "increased"}, {"measurement": "LDH release compared to other treated groups", "setting": "[4]; 24 hours post-OGD, 10 μM progesterone vs 40 μM progesterone", "result": "significant reduction"}, {"measurement": "LDH release compared to untreated cells exposed to OGD", "setting": "[4]; 24 hours post-OGD, 40 μM progesterone", "result": "except for those treated with 40 μM progesterone"}, {"measurement": "LDH release compared to other treated groups", "setting": "[4]; 24 hours post-OGD, 80 μM progesterone vs 40 μM progesterone", "result": "significant reduction"}, {"measurement": "LDH release compared to control cells not exposed to OGD", "setting": "[4]; 24 hours post-OGD, 5, 10, 20 and 80 μM progesterone", "result": "not significantly different"}, {"measurement": "LDH release compared to untreated cells exposed to OGD", "setting": "[4]; 24 hours post-OGD, all progesterone groups except 40 μM", "result": "significant reduction"}, {"measurement": "most effective concentrations to attenuate OGD-induced LDH release", "setting": "[4]", "result": "5 µM and 10 µM"}, {"measurement": "most beneficial concentration for reducing edema, inflammation, oxidative stress and cell death within the penumbral region", "setting": "[5]", "result": 16, "unit": "mg/kg"}, {"measurement": "edema", "setting": "[5]; both rodent sexes following injury", "result": "effectively attenuates"}, {"measurement": "inflammatory factors (TNF-a and IL-10)", "setting": "[5]; following injury", "result": "inhibiting"}, {"measurement": "presence of factors of cell death (caspase-3) and gliosis (GFAP)", "setting": "[5]; following injury", "result": "decreased"}, {"measurement": "Neurological Severity Score (motor and cognitive functioning)", "setting": "[5]; rats following injury", "result": "significant improvements"}, {"measurement": "30 days post-injury outcomes (Glasgow Outcome Scale-Extended and Disability Rating Scale)", "setting": "[6]; moderate TBI patients", "result": "better outcomes"}, {"measurement": "reduction in mortality", "setting": "[6]; moderate to severe TBI patients, 72 hours of continuous intravenous Prog", "result": 50, "unit": "%"}, {"measurement": "30 days post-injury outcomes (Glasgow Outcome Scale-Extended and Disability Rating Scale)", "setting": "[6]; patients with severe brain injuries", "result": "little measurable difference"}, {"measurement": "oxidative stress-induced cellular damage and death (LDH release), trend", "setting": "[7]", "result": "trend towards amelioration"}, {"measurement": "LDH release following exposure to oxidative stress, group differences", "setting": "[7]", "result": "significant group differences were not observed"}, {"measurement": "glutathione reductase activity (Δ Absorbance 340 nm/min), difference between groups", "setting": "[8]", "result": "failed to reveal a significant difference"}, {"measurement": "brain water content (measure of edema)", "setting": "[9]", "result": "normalizes brain water content"}]}, {"smiles": "CC(=O)[C@H]1CC[C@H]2[C@@H]3CC[C@H]4C[C@H](O)CC[C@]4(C)[C@H]3CC[C@]12C", "note": "[allopregnanolone]", "values": [{"measurement": "presence of factors of cell death (caspase-3) and gliosis (GFAP)", "setting": "[5]; following injury", "result": "decreased"}, {"measurement": "brain water content (measure of edema)", "setting": "[9]", "result": "normalizes brain water content"}]}, {"smiles": "CC(=O)[C@@H]1CC[C@@H]2[C@H]3CCC4=CC(=O)CC[C@@]4(C)[C@@H]3CC[C@]21C", "note": "[ent-Prog, ent-progesterone]", "values": [{"measurement": "LDH release compared to control cells that did not undergo OGD", "setting": "[4]", "result": "significantly higher"}, {"measurement": "LDH release compared to other treated groups", "setting": "[4]", "result": "significant reduction"}, {"measurement": "LDH release compared to untreated cells exposed to OGD", "setting": "[4]", "result": "significant reduction"}, {"measurement": "promoting cellular survival following oxygen and glucose deprivation, PRV-001 compared with progesterone", "setting": "[4]", "result": "equally effective"}, {"measurement": "most effective concentrations to attenuate OGD-induced LDH release", "setting": "[4]", "result": "5 µM and 10 µM"}, {"measurement": "most beneficial concentration for reducing edema, inflammation, oxidative stress and cell death within the penumbral region", "setting": "[5]", "result": 16, "unit": "mg/kg"}, {"measurement": "anti-oxidant activity of glutathione reductase", "setting": "[10]", "result": "significantly increases"}, {"measurement": "oxidative stress-induced cellular damage and death (LDH release), trend", "setting": "[7]", "result": "trend towards amelioration"}, {"measurement": "LDH release following exposure to oxidative stress, group differences", "setting": "[7]", "result": "significant group differences were not observed"}, {"measurement": "glutathione reductase activity (Δ Absorbance 340 nm/min), difference between groups", "setting": "[8]", "result": "failed to reveal a significant difference"}, {"measurement": "brain water content (measure of edema)", "setting": "[9]", "result": "normalizes brain water content"}, {"measurement": "reduction of moderate to severe brain injury-induced edema, compared with Prog", "setting": "[9]; moderate to severe TBI", "result": "equal efficacy to Prog"}, {"measurement": "activation of the classical progesterone receptor (PR)", "setting": "[11]", "result": "does not activate"}]}]}
